Laboratory results reported in patent publication EP2150534B1, “ISOQUINOLINONE DERIVATIVES AS NK3 ANTAGONISTS” (H. Lundbeck A/S, priority 2007, dated 2008).
Like-named read-outs stand apart in the source and are kept apart here.

Key:
[1] = target: T1, human NK3 receptor (Homo sapiens, UniProt P29371); assay: NK3 receptor efficacy and potency assay (FLIPR Calcium 4 assay, BHK cells; agonist and antagonist mode versus NKB); type: cell-based; conditions: read-out: Potency cIC50
T1 construct: expressed in transfected cells; membranes prepared from them
T1 sequence (P29371 1-465): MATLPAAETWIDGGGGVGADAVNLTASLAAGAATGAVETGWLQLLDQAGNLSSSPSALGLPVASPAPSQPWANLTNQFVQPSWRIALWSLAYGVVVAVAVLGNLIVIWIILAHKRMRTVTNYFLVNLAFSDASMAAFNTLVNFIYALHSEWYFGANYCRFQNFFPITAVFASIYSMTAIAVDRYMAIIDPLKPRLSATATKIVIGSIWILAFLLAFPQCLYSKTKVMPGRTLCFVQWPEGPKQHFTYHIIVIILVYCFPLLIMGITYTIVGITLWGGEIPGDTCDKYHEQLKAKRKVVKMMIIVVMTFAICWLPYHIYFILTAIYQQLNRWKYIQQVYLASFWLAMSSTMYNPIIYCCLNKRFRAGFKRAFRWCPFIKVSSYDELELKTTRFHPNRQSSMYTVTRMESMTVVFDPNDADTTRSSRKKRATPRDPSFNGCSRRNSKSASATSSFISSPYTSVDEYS
Description: BHK cells stably expressing the human NK3 receptor were seeded in 100 µl media in black walled clear-base 96-wells plates (Costar) aiming at a confluency of 95-100% at the day of assay. The assay was performed according to the FLIPR Calcium 4 Assay kit (Molecular Devices). At the day of the assay, the media was removed and the cells were washed once with the HBSS buffer (Hanks BSS buffer, pH 7,4 containing 20 mM Hepes) before 100 µl of a solution of the calcium assay reagent dissolved in the HBSS buffer containing 2,5 mM probinicid was added to the cells. The plates were incubated for 60 min at 34°C, 10% CO2 before use in the FLIPR for examination of fluorescence.
For efficacy and potency evaluation of compounds, these were diluted in HBSS buffer prior to test. For test of agonist activity, 25 µl of the diluted compound solution was added and the plate was analyzed for 5 minutes in the FLIPR. […] The plates were subsequently analyzed for 5 minutes before the assay was terminated. The maximal increase in fluorescence over background following each ligand addition was determined.

[2] = target: T1, human NK3 receptor; assay: NK3 receptor binding assay (SPA-based competition binding with 125I-NKB, membranes of BHK cells)
Description: Membranepreparation: BHK cells stably expressing the human NK3 receptor were seeded in harvesting plates in Dulbeccos MEM containing GlutaMax (862 mg/l), 1 mM sodium pyruvate, 10% fetal calf serum, 1% Pen/Strep, I mg/ml G418 and were grown at 34 °C in a humidified atmosphere containing 10% CO2. To increase receptor expression, 10 µM trichotatin A was added to the media 24 hours before harvest of the cells at a confluency of app 90%. Prior to the harvesting, the cells were washed twice with PBS without Mg^2+ og Ca^2+ and subsequently scrapped of in 10 ml PBS pr harvesting plate. The cells suspension were centrifuged at 1500xG in three minutes before resuspension in 15 mM Tris-HCl pH 7,5 buffer containing 2 mM MgCl2; 0,3 mM EDTA and 1 mM EGTA (buffer A). The cell suspention was homogenised and subsequently centrifuged at 40000xG in 30 minutes. The membrane-pellet was resuspended in buffer A containing 250 mM sucrose, alliquoted and stored at - 80°C.
Affinity assay description: The assay was performed as a SPA-based competition-binding assay in a 50 mM Tris pH 7.4 assay buffer containing 120 mM NaCl, 3 mM MnCl2, 40 µg/ml bacitracin, 2 µg/ml Chymostatin, 1 µg/ml Phosphoramidon and 4 µg/ml Leupeptin. App 0.02 nM ^125I-NKB was mixed with test compounds before addition of 4 µg of the homogenised NK3 membrane preparation and 0,025 mg SPA beads in a total volume of 60 µl. The assay plate was subsequently under agitation incubated for 90 min at RT. The plate was centrifugated 10 minutes at 500xG and counted in a topcounter 5 minuttes pr well.
The non-specific binding constituted app 5 % of the total binding.
Data points were expressed in percent of the specific binding of ^125I-NKB and the IC50 values (concentration causing 50 percent inhibition of ^125I-NKB specific binding) were determined by non-linear regression analysis using a sigmoidal variable slope curve fitting. The dissociation constant (Ki) were calculated from the Cheng Prusoff equation (Ki = IG50/(1+(L/KD))), where the concentration of free radioligand L is approximated to the concentration of added ^125I-NKB in the assay (app 0,02 nM).
The KD of ^125I-NKB was determined to be 0,7 nM from three independent saturation assays each performed with duplicate determinations. Bmax was app 2 pmol/mg.

[3] = Ki for the NK3 receptor, table of Example 9, 125I-NKB competition binding, read-out: Ki
[4] = table of Example 10, affinity obtained as described in Example 9, read-out: Affinity Ki

Row | SMILES | IC50 [1] [nM] | Ki [2, 3] [nM] | Ki [2, 4] [nM]
1 | O=C(NC(c1cccc(F)c1)C1CC1)c1c(CN2CCN(CCN3CCCC3)CC2)n(-c2ccccc2)c(=O)c2ccccc12 (stereo not drawn) [Example 2hv, 1-Oxo-2-phenyl-3-[4-(2-pyrrolidin-1-yl-ethyl)-piperazin-1-ylmethyl]-1,2-dihydro-isoquinolinc-4-carboxylic acid [cyclopropyl-(3-fluoro-phenyl)-methyl]-amide] | 35 |  | 14
2 | COc1cccc(C2(O)CCN(Cc3c(C(=O)NC(c4cccc(F)c4)C4CC4)c4ccccc4c(=O)n3-c3ccccc3)CC2)c1 (stereo not drawn) [Example 2hz, 3-[4-Hydroxy-4-(3-methoxy-phenyl)-piperidin-1-ylmethyl]-1-oxo-2-phenyl-1,2-dihydro-isoquinoline-4-carboxylic acid [cyclopropyl-(3-fluoro-phenyl)-methyl]-amide] | 35 | 3 | 4.5
3 | O=C(NC(c1cccc(F)c1)C1CC1)c1c(CN2CCC(O)(c3ccncc3)CC2)n(-c2ccccc2)c(=O)c2ccccc12 (stereo not drawn) [Example 2hx, 3-(4-Hydroxy-3,4,5,6-tetrahydro-2H-[4,4']bipyridinyl-1-ylmethyl)-1-oxo-2-phenyl-1,2-dihydro-isoquinoline-4-carboxylic acid [cyclopropyl-(3-fluoro-phenyl)-methyl]-amide] | 68 |  | 9.3
4 | CC(C)(C)N1CCC(Cc2c(C(=O)N[C@H](c3cccc(F)c3)C3CC3)c3cccc(Cl)c3c(=O)n2-c2ccccc2)CC1 [Example 8a, 3-(1-tert-Butyl-piperidin-4-ylmethyl)-8-chloro-1-oxo-2 phenyl-1,2-dihydro-isoquinoline-4-carboxylic acid [(S)-cyclopropyl-(3-fluoro-phenyl)-methyl]-amide] | 9.9 |  | 7
5 | CC[C@H](NC(=O)c1c(CN2CCN(c3ccc4ncccc4c3)CC2)n(-c2ccccc2)c(=O)c2ccccc12)c1ccccc1 [Example 2fm, 1-Oxo-2-phenyl-3-(4-quinolin-6-yl-piperazin-1-ylmethyl)-1,2-dihydro-isoquinoline-4-carboxylic acid ((S)-1-phenyl-propyl)-amide] | 140 |  | 33
6 | CC[C@H](NC(=O)c1c(CN2CCC(O)(c3cccc(OC)c3)CC2)n(-c2cccc(F)c2)c(=O)c2ccccc12)c1ccccc1 [Example 2iy, 2-(3-Fluoro-phenyl)-3-[4-hydroxy-4-(3-methoxy-phenyl)-piperidin-1-ylmethyl]-1-oxo-1,2-dihydro-isoquinoline-4-carboxylic acid ((S)-1-phenyl-propyl)-amide] | 92 |  | 17
7 | CC[C@H](NC(=O)c1c(CN2CCC(CCN3CCOCC3)CC2)n(-c2ccccc2)c(=O)c2ccccc12)c1ccccc1 [Example 2cw, 3-[4-(2-Morpholin-4-yl-ethyl)-piperidin-1-ylmethyl]-1-oxo-2-phenyl-1,2-dihydro-isoquinoline-4-carboxylic acid ((S)-1-phenyl-propyl)-amide] | 45 |  | 8.4
8 | CC[C@H](NC(=O)c1c(CN2CCC3(CC2)OCCO3)n(-c2ccccc2)c(=O)c2ccccc12)c1ccccc1 [Example 2u, 3-(1,4-Dioxa-8-aza-spiro[4.5]dec-8-ylmethyl)-1-oxo-2-phenyl-1,2-dihydro-isoquinoline-4-carboxylic acid ((S)-1-phenyl-propyl)-amide] | 96 |  | 90
9 | O=C(N[C@H](c1cccc(F)c1)C1CC1)c1c(CN2CCCC2=O)n(-c2ccccc2)c(=O)c2c(Cl)cccc12 [Example 3d, 8-Chloro-1-oxo-3-(2-oxo-pyrrolidin-1-ylmethyl)-2-phenyl-1,2-dihydro-isoquinoline-4-carboxylic acid [(S)-cyclopropyl-(3-fluoro-phenyl)-methyl]-amide] | 46 |  | 16
10 | CC[C@H](NC(=O)c1c(CN2CCN(CCN3CCOCC3)CC2)n(-c2ccccc2)c(=O)c2ccccc12)c1ccccc1 [Example 2bm, 3-[4-(2-Morpholin-4-yl-ethyl)-piperazin-1-ylmethyl]-1-oxo-2-phenyl-1,2-dihydro-isoquinoline-4-carboxylic acid ((S)-1-phenyl-propyl)-amide] | 14 | 8.2 | 8.8

The remaining lines, values ahead:

Row | IC50 [1] [nM] | Ki [2, 3] [nM] | Ki [2, 4] [nM] | SMILES
11 | 270 | 72 | 88 | CC[C@H](NC(=O)c1c(CN2CCCC2=O)n(-c2ccccc2)c(=O)c2ccccc12)c1ccccc1 [Example 3a, 1-Oxo-3-(2-oxo-pyrrolidin-1-ylmethyl)-2-phenyl-1,2-dihydro-isoquiline-4-carboxylic acid ((S)-1-phenyl-propyl)-amide]
12 | 44 |  | 27 | Cc1c(C(=O)N[C@H](c2cccc(F)c2)C2CC2)c2cccc(Cl)c2c(=O)n1-c1ccccc1 [Example 1t, 8-Chloro-3-methyl-1-oxo-2-phenyl-1,2-dihydro-isoquinoline-4-carboxylic acid [(S)-cyclopropyl-(3-fluoro-phenyl)-methyl]-amide]
13 | 610 |  | 240 | CCC(CO)NCc1c(C(=O)N[C@@H](CC)c2ccccc2)c2ccccc2c(=O)n1-c1ccccc1 (stereo partly drawn) [Example 2eg, 3-[(1-Hydroxymethyl-propylamino)-methyl]-1-oxo-2-phenyl-1,2-dihydro-isoquinoline-4-carboxylic acid ((S)-1-phenyl-propyl)-amide]
14 | 240 |  | 140 | CC[C@H](NC(=O)c1c(CN2CC[C@H](O)C2)n(-c2ccccc2)c(=O)c2ccccc12)c1ccccc1 [Example 2es, 3-((S)-3-Hydroxy-pyrrolidin-1-ylmethyl)-1-oxo-2-phenyl-1,2-dihydro-isoquinoline-4-carboxylic acid ((S)-1-phenyl-propyl)-amide]
15 | 470 |  | 330 | CC[C@H](NC(=O)c1c(CNCC2CC2)n(-c2ccccc2)c(=O)c2ccccc12)c1ccccc1 [Example 2e, 3-[(Cyclopropylmethyl-amino)-methyl]-1-oxo-2-phenyl-1,2-dihydro-isoquinoline-4-carboxylic acid ((S)-1-phenyl-propyl)-amide]
16 | 130 |  | 41 | CC[C@H](NC(=O)c1c(C)n(-c2ccccc2)c(=O)c2c(Cl)cccc12)c1ccccc1 [Example 1i, 8-Chloro-3-methyl-1-oxo-2-phenyl-1,2-dihydro-isoquinoline-4-carboxylic acid ((S)-1-phenyl-propyl)-amide]
17 | 5.6 |  | 11 | CC[C@H](NC(=O)c1c(CN2CCN(C(C)(C)C)CC2)n(-c2ccccc2)c(=O)c2c(Cl)cccc12)c1ccccc1 [Example 2ko, 3-(4-tert-Butyl-piperazin-1-ylmethyl)-8-chloro-1-oxo-2-phenyl-1,2-dihydro-isoquinoline-4-carboxylic acid ((S)-1-phenyl-propyl)-amide]
18 | 450 |  | 340 | CC[C@H](NC(=O)c1c(CN2CCNC(=O)C2)n(-c2ccccc2)c(=O)c2ccccc12)c1ccccc1 [Example 2df, 1-Oxo-3-(3-oxo-piperazin-1-ylmethyl)-2-phenyl-1,2-dihydro-isoquinoline-4-carboxylic acid ((S)-1-phenyl-propyl)-amide]
